Here are results for nine compounds from patent US20120100097A1, “CELLULOSE SUPPORT CONTAINING D-MANNOSE DERIVATIVES” (priority 2009, published 2012).

One assay deals with Escherichia coli with type 1 pili (strain 382). Format: cell-based. The settings on record: minimum inhibitive concentration (mg/ml) divided by that of D-mannose, x100; lower = stronger; free mannose derivatives before copolymerization. The text has this:
The conducted bacteriological test is an agglutination yeast test. In fact the bacteria Escherichia coli with type 1 pili, have the capacity to agglutinate yeasts. The agglutination may be prevented by mannose derivatives. The strain 382 of Escherichia coli obtained from National Bacteriological Laboratory of Stockholm, which expresses in a stable manner type 1 pili, is used. The expression of the pili can be enhanced by growing bacteria by way of three subcultures in a nutrient broth (NB, oxiod). After culture the bacteria are centrifuged and added as suspension in the same amount of phosphate buffered saline (PBS pH 7.2). A concentration of bacteria equal to 2-3.10^9 bacteria/ml is obtained. Baker's yeasts are added as suspension into PBS at a final concentration of 5.10^8 cells/ml. The various mannose derivatives are diluted from the initial concentration of 20 mg/ml maximum in two stages in PBS. Into 50 μl of each diluted sugar 50 μl of Escherichia coli is added and incubated at room temperature for 15 min to allow interaction. Finally 50 μl of yeast is added into each tube. After another 15 min. incubation at room temperature and one night at 4° C., agglutination, in other words interaction between bacteria and yeast, is evaluated.
`OCCOCCO[C@H]1OC(CO)[C@@H](O)[C@H](O)C1O` (stereo partly drawn) [Compound 4, 2-[(2-hydroxy-)ethoxy-]-ethyl α-D-Mannopyranoside]: the “Inhibitive activity in %” value came out at 24%.

As to `COCCOCCO[C@H]1O[C@H](CO)[C@@H](O)[C@H](O)[C@@H]1O` [Compound 7, 2-[(2-methoxy-)ethoxy-]-ethyl α-D-Mannopyranoside], the “Inhibitive activity in %” value is 24%.

On to `C=CCO[C@H]1OC(CO)[C@@H](O)C(O)C1O` (stereo partly drawn) [Compound 8, Allyl-α-D-mannopyranoside], for which the “Inhibitive activity in %” value is listed as 0.12%.

Regarding `OCC1O[C@H](OCc2ccccc2)C(O)[C@@H](O)[C@@H]1O` (stereo partly drawn) [Compound 10, Benzyl-α-D-Mannopyranoside], the “Inhibitive activity in %” value is given as 24%.

For `Nc1ccc(O[C@H]2O[C@H](CO)[C@@H](O)[C@H](O)[C@@H]2O)cc1` [Compound 12, p-Aminophenyl-α-D-Mannopyranoside], the “Inhibitive activity in %” value is on record as 0.93%.

As to `O=[N+]([O-])c1ccc(O[C@H]2O[C@H](CO)[C@@H](O)[C@H](O[C@H]3O[C@H](CO)[C@@H](O)[C@H](O)[C@@H]3O)[C@@H]2O)cc1` [Compound 15, p-Nitrophenyl 3-O-α-D-Mannopyranosyl-α-DMannopyranoside], the “Inhibitive activity in %” value is 0.70%.

Consider `O=C[C@@H](O)[C@@H](O)[C@H](O)[C@H](O)CO` [D-Mannose], for which the “Inhibitive activity in %” value worked out at 100%.

As to `CCS[C@H]1O[C@H](CO)[C@@H](O)[C@H](O)[C@@H]1O` [Ethyl 1-thio-α-D-mannopyranoside, reference compound], the “Inhibitive activity in %” value was determined as 18%.

Take `CO[C@H]1O[C@H](CO)[C@@H](O)[C@H](O)[C@@H]1O` [Methyl-α-D-Mannoside, reference compound]: the “Inhibitive activity in %” value turned out to be 45%.

A further assay shares this test system. Format: cell-based. The note with it: agglutination test of the terpolymer directly on Escherichia coli strains; relative to D mannose = 100.
As for `O=C[C@@H](O)[C@@H](O)[C@H](O)[C@H](O)CO` [D-Mannose], the Inhibitative activity turned out to be 100%.
